Patent US9156830B2, “Heterocyclic compounds” (SHIONOGI & CO., LTD., priority 2011, dated 2015)

Columns and labels:
Human TRPV1 [1] = molecular target: T1, Human TRPV1 (Homo sapiens (Human), UniProt Q8NER1); experiment: Capsaicin-Based Assay (Protocol 2), TRPV1/CHO cells; assay type: cell-based; conditions: capsaicin 100 nM final
Experimental: The TRPV1/CHO cell line was generated as described below. […] Subsequently, the cells were loaded by incubation in 0.1 mL of wash buffer containing Fluo-4 at 3 μM final concentration. After 1 hour, the cells were washed twice with 0.2 mL wash buffer and resuspended in 0.1 mL wash buffer. The plates were then transferred to a Fluorescence Imaging Plate Reader (Molecular Devices). Fluorescence intensity was monitored for 15 seconds to establish a baseline. […] The final concentration of the compound was adjusted to range from 100 μM to 1.5625 μM. […] Data were collected over the entire time course and analyzed using Excel and the curve-fitting formula GraphPad Prism.

[2] = Measurement of Body Temperature Increase; assay type: in vivo; conditions: Crl/SD rats, oral, 1 mg/mL in 0.5% methylcellulose at 10 mL/kg; rectal temperature 0.5, 1 and 2 hrs after administration; difference from vehicle group average
Experimental: Selection of rats (Crl/SD rats, 7 weeks, male) for this study is based on rectal body temperature measured during the morning of the day of dosing. In addition, animals selected for this study are acclimated to both the rectal measurement procedure and to being handled and dosed to minimize spontaneous, stress-induced, increases in body temperature. The study is conducted in the animal care laboratories where the room temperature and humidity are kept. The rats are free to move and food and water during the study. Each rat is numbered with color line on the tail, housed in each cage and permittted the normal range of movement. Immediately before each body temperature is measured, they transferred to a single cage at each measurement. To reduce stress which affected the body temperature, the rats are covered with towels at the measurement. The thermistor probe is then carefully inserted into the rectum of each rat and left in place until the value on the digital display had stabilized.
On the day before dosing, rectal body temperatures are measured at 9:00, 10:00, 11:00, 12:30, 13:30, 14:30 and 15:30 to familiarize the animals with the measurement procedure prior to administration of the test or control treatments. The rats are also dosed by oral gavage without vehicle at 12:30 to acclimate and familiarized the animals with the handling and dosing procedure.
On the day of dosing, only rats whose rectal body temperatures are within the range of 37.0° C. to 37.7° C. are selected for this study. Rectal body temperatures are measured at 9:00, 10:00 and 11:00. Rats whose rectal body temperatures are over 37.9° C. at 10:00, and are outside the range of 37.0° C. to 37.7° C. at 11:00 are excluded from the study. The selected rats are divided to several groups based on their rectal body temperatures at 11:00. Rectal body temperatures of the selected rats are measured again at 12:30, and any rats whose rectal body temperature is 38.0° C. or greater are excluded from the study.
Following the group assignment, test compounds or vehicle is administrated to the rats. Each test compound is dissolved in 0.5% methylcellulose and the final concentration of the compound is adjusted to 1 mg/mL. Test compound is orally administrated in a volume 10 mL/kg once. 10 mL/kg of vehicle (0.5% methylcellulose) is administered to the vehicle group. The rectal body temperatures are measured 0.5, 1 and 2 hrs after the administration. The study is conducted in the animal care laboratories where the room temperature and humidity are kept.
Body temperature increase (ΔTb) is calculated from the difference from an average of the vehicle group at each time point. The body temperature increases (ΔTb) of Compounds I-20, I-25, I-26, I-28, I-29, I-33, I-34, I-36, I-37, I-63 and I-64 were less than 0.3° C.

Human TRPV1 [3] = molecular target: T1, Human TRPV1; experiment: pH-Based Assay (Protocol 2), Ca2+ response in TRPV1/CHO cells; assay type: cell-based; conditions: pH 5.0-5.1 (H2SO4)
Experimental: The TRPV1/CHO cell line was generated as described below. The following assay was conducted to determine the concentration of sulfuric acid that would give rise to a pH that induces a […] response optimal to test compounds for their effect on TRPV1. […] For one half of a 96-well plate one agonist solution was used, for the other half the other agonist solution. The agonist solutions were obtained by diluting sulfuric acid (H2SO4, 1 M) with measuring buffer. The concentrations for the two agonist solutions were determined as described above in Section 2 of Protocol 2. The sulfuric acid concentrations between the two agonist solutions differed by 0.5 mM. […] The thereby-obtained solutions were further diluted in measuring buffer (1:100) as 10× stock serial dilutions with a DMSO concentration of 1%. 10 μL of a 10× stock was added into each well at step 3.3.(4) of Protocol 2. Thus, the final concentrations of antagonists ranged from 1000-0.977 nM containing 0.1% DMSO (FIG. 3B). […] (3) The cells were washed twice with 150 μL of measuring buffer (mentioned in 2.2.(3) of Protocol 2, no probenecid). The wells were subsequently refilled with 70 μL of measuring buffer. (4) Either 10 μL of measuring buffer or 10 μL of 10× stock serial dilution of test compound (described in 3.2. above) were applied to each well. Usually, only one test compound was tested per 96-well plate. The number of replicates per 96-well plate for a particular antagonist at a particular concentration was 7×2 since two different sulfuric acid concentrations were used per 96-well plate (N=7×2)(FIG. 3). Step (5) was the same as 2.2.(4) above. (6) Fura-2 fluorescent intensity was monitored as described in 2.2.(5) above. […] Steps (7) and (8) were as described in 2.2.(6) and 2.2.(7) above, respectively. […] FIG. 3) were measured one by one using a portable pH meter.

[4] = Fluo-4, read-out: TRPV1 IC50 Potency Capsaicin-Based Assay IC50
[5] = Fluo-4, read-out: IC50 value by the Capsaicin-Based Assay
[6] = Fura-2, read-out: TRPV1 IC50 Potency pH-Based Assay IC50
[7] = Fura-2, read-out: IC50 value by the pH-Based Assay

T1 sequence (Q8NER1 whole entry): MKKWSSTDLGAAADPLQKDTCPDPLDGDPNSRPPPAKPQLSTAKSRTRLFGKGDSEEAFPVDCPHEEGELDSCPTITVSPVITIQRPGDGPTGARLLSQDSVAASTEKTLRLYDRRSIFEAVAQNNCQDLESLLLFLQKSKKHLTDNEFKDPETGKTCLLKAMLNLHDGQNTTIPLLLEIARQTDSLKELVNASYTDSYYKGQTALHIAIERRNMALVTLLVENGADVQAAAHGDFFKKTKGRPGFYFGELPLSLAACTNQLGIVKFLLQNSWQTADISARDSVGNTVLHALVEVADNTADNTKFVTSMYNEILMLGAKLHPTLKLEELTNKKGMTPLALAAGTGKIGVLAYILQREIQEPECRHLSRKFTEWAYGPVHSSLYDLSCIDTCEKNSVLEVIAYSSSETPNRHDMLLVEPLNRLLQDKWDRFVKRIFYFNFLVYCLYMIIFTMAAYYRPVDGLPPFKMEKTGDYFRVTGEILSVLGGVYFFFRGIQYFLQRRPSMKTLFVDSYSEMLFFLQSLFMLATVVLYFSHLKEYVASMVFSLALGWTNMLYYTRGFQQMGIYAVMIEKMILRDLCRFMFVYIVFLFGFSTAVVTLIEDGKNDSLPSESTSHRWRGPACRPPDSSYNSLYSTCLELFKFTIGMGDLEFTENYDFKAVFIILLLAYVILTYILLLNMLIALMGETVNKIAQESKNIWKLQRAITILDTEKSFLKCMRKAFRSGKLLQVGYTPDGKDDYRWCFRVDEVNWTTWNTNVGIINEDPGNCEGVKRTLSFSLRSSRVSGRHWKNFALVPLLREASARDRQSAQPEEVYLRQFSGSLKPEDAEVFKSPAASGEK

| Compound | IC50 (Human TRPV1 [1]; [4]) | IC50 (Human TRPV1 [1]; [5]) | IC50 (Human TRPV1 [3]; [7]) | also measured |
| --- | --- | --- | --- | --- |
| O=C(Nc1ccc(C(F)(F)F)c(Cl)c1)N1CC=C(c2ncc(N3C[C@@H](O)[C@@H](O)C3=O)cc2Cl)CC1 [Compound I-71, N-(3-chloro-4-(trifluoromethyl)phenyl)-4-(3-chloro-5-((3R,4R)-3,4-dihydroxy-2-oxopyrrolidin-1-yl)pyridin-2-yl)-5,6-dihydropyridine-1(2H)-carboxamide] | 322 nM | – | – | – |
| Cc1cc(-c2ccc(CO)o2)cnc1C1(F)CCN(C(=O)Nc2ccc(C(F)(F)F)c(Cl)c2)CC1 [Compound I-39, N-(3-chloro-4-(trifluoromethyl)phenyl)-4-fluoro-4-(5-(5-(hydroxymethyl)furan-2-yl)-3-methylpyridin-2-yl)piperidine-1-carboxamide] | 342 nM | – | – | – |
| O=C(Nc1ccc(C(F)(F)F)cn1)N1CC=C(c2ncc(-c3nc(CO)no3)cc2F)CC1 [Compound I-63, 4-(3-fluoro-5-(3-(hydroxymethyl)-1,2,4-oxadiazol-5-yl)pyridin-2-yl)-N-(5-(trifluoromethyl)pyridin-2-yl)-5,6-dihydropyridine-1(2H)-carboxamide] | – | – | – | Body temperature increase (ΔTb) [2]: less than 0.3 °C |
| O=C(Nc1ccc(C(F)(F)F)cn1)N1CCC(F)(c2ncc(-c3nc(CO)no3)cc2Cl)CC1 [Compound I-57, 4-(3-chloro-5-(3-(hydroxymethyl)-1,2,4-oxadiazol-5-yl)pyridin-2-yl)-4-fluoro-N-(5-(trifluoromethyl)pyridin-2-yl)piperidine-1-carboxamide] | 16.6 nM | – | – | – |
| Cc1cc(NC(=O)N2CC=C(c3ccc(-c4nnc(CO)o4)cc3Cl)CC2)ccc1C(F)(F)F [Compound I-76, 4-(2-chloro-4-(5-(hydroxymethyl)-1,3,4-oxadiazol-2-yl)phenyl)-N-(3-methyl-4-(trifluoromethyl)phenyl)-5,6-dihydropyridine-1(2H)-carboxamide] | – | ≤ 100 nM | – | IC50 (Human TRPV1 [3]; [6]): 2.1 nM |
| O=C(Nc1ccc(C(F)(F)F)c(Cl)c1)C1=CCN(c2ncc(-c3nnc(CO)o3)cc2Cl)CC1 [Compound I-67, N-(3-chloro-4-(thloro-5-(5-(hydroxymethyl)-1,3,4-oxadiazol-2-yl)pyridin-2-yl)-1,2,3,6-terifluoromethyl)phenyl)-1-(3-ctrahydropyridine-4-carboxamide] | – | ≤ 100 nM | ≤ 100 nM | – |
| O=C(Nc1ccc(C(F)(F)F)c(Cl)c1)N1CC=C(c2ncc(-c3nnc(CCO)o3)cc2Cl)CC1 [Compound I-50, N-(3-chloro-4-(trifluoromethyl)phenyl)-4-(3-chloro-5-(5-(2-hydroxyethyl)-1,3,4-oxadiazol-2-yl)pyridin-2-yl)-5,6-dihydropyridine-1(2H)-carboxamide] | – | – | – | IC50 (Human TRPV1 [3]; [6]): 60.8 nM |
| Cc1cc(-c2nnc(CO)o2)cnc1C1=CCN(C(=O)Nc2ccc(C(F)(F)F)c(Cl)c2)CC1 [Compound I-43, N-(3-chloro-4-(trifluoromethyl)phenyl)-4-(5-(5-(hydroxymethyl)-1,3,4-oxadiazol-2-yl)-3-methylpyridin-2-yl)-5,6-dihydropyridine-1(2H)-carboxamide] | – | ≤ 100 nM | ≤ 100 nM | – |
| Cc1cc(NC(=O)N2CC=C(c3ncc(Cc4ncco4)cc3Cl)CC2)ccc1C(F)(F)F [Compound I-80, 4-(3-chloro-5-(oxazol-2-ylmethyl)pyridin-2-yl)-N-(3-methyl-4-(trifluoromethyl)phenyl)-5,6-dihydropyridine-1(2H)-carboxamide] | 223 nM | – | – | – |
| O=C(Nc1ccc(C(F)(F)F)c(Cl)c1)N1CC=C(c2ccc(-c3nnc(CO)o3)cc2Cl)CC1 [Compound I-75, 4-(2-chloro-4-(5-(hydroxymethyl)-1,3,4-oxadiazol-2-yl)phenyl)-N-(3-chloro-4-(trifluoromethyl)phenyl)-5,6-dihydropyridine-1(2H)-carboxamide] | – | ≤ 100 nM | ≤ 100 nM | – |
| O=C(C#Cc1ccc(-c2nnc(CO)o2)cc1Cl)Nc1ccc(C(F)(F)F)c(Cl)c1 [Compound I-81, 3-(2-chloro-4-(5-(hydroxymethyl)-1,3,4-oxadiazol-2-yl)phenyl)-N-(3-chloro-4-(trifluoromethyl)phenyl)propiolamide] | – | – | – | IC50 (Human TRPV1 [3]; [6]): 12.8 nM |
| Cc1nnc(-c2cnc(C3=CCN(C(=O)Nc4ccc(C(C)(C)C)cc4)CC3)c(Cl)c2)o1 [Compound I-7] | – | – | – | IC50 (Human TRPV1 [3]; [6]): 0.5 nM |
| O=C(Nc1ccc(C(F)(F)F)c(Cl)c1)N1CC=C(c2ncc(Cc3nnc(CO)o3)cc2Cl)CC1 [Compound I-77, N-(3-chloro-4-(trifluoromethyl)phenyl)-4-(3-chloro-5-((5-(hydroxymethyl)-1,3,4-oxadiazol-2-yl)methyl)pyridin-2-yl)-5,6-dihydropyridine-1(2H)-carboxamide] | 38.8 nM | – | – | – |
| O=C(Nc1ccc(C(F)(F)F)cn1)N1CCC(F)(c2ncc(-c3cc(CO)on3)cc2Cl)CC1 [Compound I-53, 4-(3-chloro-5-(5-(hydroxymethyl)isoxazol-3-yl)pyridin-2-yl)-4-fluoro-N-(5-(trifluoromethyl)pyridin-2-yl)piperidine-1-carboxamide] | – | ≤ 100 nM | ≤ 100 nM | – |
| Cc1cc(NC(=O)N2CCC(F)(c3ncc(-c4cc(CO)on4)cc3Cl)CC2)ccc1C(F)(F)F [Compound I-54, 4-(3-chloro-5-(5-(hydroxymethyl)isoxazol-3-yl)pyridin-2-yl)-4-fluoro-N-(3-methyl-4-(trifluoromethyl)phenyl)piperidine-1-carboxamide] | – | ≤ 100 nM | ≤ 100 nM | – |
| O=C(Nc1ccc(C(F)(F)F)c(Cl)c1)N1CCC(F)(c2ncc(-c3cc(CO)on3)cc2Cl)CC1 [Compound I-52, N-(3-chloro-4-(trifluoromethyl)phenyl)-4-(3-chloro-5-(5-(hydroxymethyl)isoxazol-3-yl)pyridin-2-yl)-4-fluoropiperidine-1-carboxamide] | – | ≤ 100 nM | ≤ 100 nM | – |
| O=C(NCCNc1ncc(-c2nnc(CO)o2)cc1Cl)Nc1ccc(C(F)(F)F)c(Cl)c1 [Compound I-60, 1-(3-chloro-4-(trifluoromethyl)phenyl)-3-(2-(3-chloro-5-(5-(hydroxymethyl)-1,3,4-oxadiazol-2-yl)pyridin-2-ylamino)ethyl) urea] | 357 nM | – | – | – |
| Cc1cc(NC(=O)N2CC=C(c3ncc(-c4nnc(CO)o4)cc3C)CC2)ccc1C(F)(F)F [Compound I-44, 4-(5-(5-(hydroxymethyl)-1,3,4-oxadiazol-2-yl)-3-methylpyridin-2-yl)-N-(3-methyl-4-(trifluoromethyl)phenyl)-5,6-dihydropyridine-1(2H)-carboxamide] | – | ≤ 100 nM | – | IC50 (Human TRPV1 [3]; [6]): 1 nM |
